Laboratory results from patent US6569403B1, “Determining effects of external stimuli on the brain using PET” (Miicro, Incorporated, priority 1995, dated 2003).
“Also recorded” adds a separate entry of the source.

Legend:
Type in all cases: in vivo
healthy human subjects [1] = test: PET with FDG: cerebral glucose metabolism (CMRglu) under behavioral clamp, drug versus placebo
healthy human subjects [2] = test: visual monitoring task (VMT): reaction time and accuracy
Excerpt: (§1) Ninety minutes after administration of fluoxetine or placebo, subjects were repositioned in the PET scanner and a visual monitoring task (VMT) was initiated. The task assured a stable behavioral condition at the time of testing. Each subject was asked to press a button with his or her right thumb every time a dim light (50% of trials) was presented on a screen mounted in front of him or her and was asked to ignore every bright light (50%). The lights were presented under computer control at random intervals ranging from 4 to 7 sec. Each subjected completed four blocks of 96 trials each (approximately 10 min per block). Subjects also completed the Profile of Mood States (POMS) before the capsule and 20 min after injection of FDG.

healthy human subjects [3] = test: Profile of Mood States (POMS): subjective effects; conditions: fluoxetine 40 mg oral versus placebo
Excerpt: as §1

[4] = fluoxetine 40 mg oral versus placebo, voxel t-test images (FIG. 1)
[5] = ethanol 0.5 g/kg versus placebo (tonic water), FIG. 3

Row | Structure (SMILES) | relative glucose metabolism in bilateral amygdaloid complex, hippocampal formation and ventral striatum (healthy human subjects [1]; [4]) | relative glucose metabolism in right superior parietal lobe (Brodmann area 7) (healthy human subjects [1]; [4]) | Average global CMRglu (healthy human subjects [1]; fluoxetine 40 mg oral, FDG about 90 min after dosing, four healthy subjects, mean of all slices) [mg 100 g^1 min^−1] | Average global CMRglu, fluoxetine scans versus placebo scans (healthy human subjects [1]; fluoxetine 40 mg oral, paired two-tailed t-test) | accuracy on the VMT (% correct) (healthy human subjects [2]; after fluoxetine 40 mg oral) | median reaction time on the VMT (healthy human subjects [2]; after fluoxetine 40 mg oral, ± s.d.) [ms] | effects on reaction time or accuracy on the VMT (healthy human subjects [2]; fluoxetine 40 mg oral versus placebo) | subjective effects as measured by the POMS (healthy human subjects [3]) | rCMglu in frontal and temporal lobes, basal ganglia and limbic system (healthy human subjects [1]; [5]) | rCMglu in the left hemisphere (healthy human subjects [1]; [5])
1 | CNCCC(Oc1ccc(C(F)(F)F)cc1)c1ccccc1 (stereo not shown) [fluoxetine] | decreased relative glucose metabolism; also recorded: decrease in CMRglu | increased relative metabolism; also recorded: increase in metabolism | 8.22±0.86 | not significantly different | 96.4±3.2 | 553 ± 64 | no systematic effects | no differences | – | –
2 | CCO [ethanol] | – | – | – | – | – | – | – | – | affected | widespread increase
